Columns and labels:
Assay in all cases: relative viability (nuclei count vs DMSO), 5 days (fraction); higher = more cells survive
AZ3146 + Foretinib = compound: CN1CCC(CC1)OC2=CC(=C(C=C2)NC3=NC=C4C(=N3)N(C(=O)N4C)C5CCCC5)OC [AZ3146] + COc1cc2c(Oc3ccc(NC(=O)C4(C(=O)Nc5ccc(F)cc5)CC4)cc3F)ccnc2cc1OCCCN1CCOCC1 [Foretinib] (partner 0.25 µM)
Procedure, shortened: (§1)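 Lung cancer cell lines, seeded in 1536-well plates, were treated the following day by pin tool with a single drug or with five library-drug doses (not always all listed) in √10 steps on top of a fixed anchor-drug dose. Cells were fixed and nuclei stained in one step after 5 days, and nuclei were counted. Relative viability is the nuclei count for treated wells divided by that for vehicle wells, reported as medians of duplicate plates.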

AZ3146 + Phenformin = compound: CN1CCC(CC1)OC2=CC(=C(C=C2)NC3=NC=C4C(=N3)N(C(=O)N4C)C5CCCC5)OC [AZ3146] + N=C(N)NC(=N)NCCc1ccccc1 [Phenformin] (partner 250 µM)
Procedure, shortened: as §1

GSK-J4 + Alpelisib = compound: CCOC(=O)CCNc1cc(N2CCc3ccccc3CC2)nc(-c2ccccn2)n1 [GSK-J4] + Cc1nc(NC(=O)N2CCC[C@H]2C(N)=O)sc1-c1ccnc(C(C)(C)C(F)(F)F)c1 [Alpelisib] (partner 2 µM)
Procedure, shortened: as §1

GSK-J4 + Dasatinib = compound: CCOC(=O)CCNc1cc(N2CCc3ccccc3CC2)nc(-c2ccccn2)n1 [GSK-J4] + Cc1nc(Nc2ncc(C(=O)Nc3c(C)cccc3Cl)s2)cc(N2CCN(CCO)CC2)n1 [Dasatinib] (partner 0.075 µM)
Procedure, shortened: as §1

Cell Line	relative viability (AZ3146 + Foretinib; first compound 0.08 µM)	relative viability (AZ3146 + Foretinib; first compound 0.253 µM)	relative viability (AZ3146 + Foretinib; first compound 0.8 µM)	relative viability (AZ3146 + Foretinib; first compound 2.53 µM)	relative viability (AZ3146 + Foretinib; first compound 8 µM)	relative viability (AZ3146 + Phenformin; first compound 0.08 µM)	relative viability (AZ3146 + Phenformin; first compound 0.253 µM)	relative viability (AZ3146 + Phenformin; first compound 0.8 µM)	relative viability (AZ3146 + Phenformin; first compound 2.53 µM)	relative viability (AZ3146 + Phenformin; first compound 8 µM)	relative viability (GSK-J4 + Alpelisib; first compound 0.5 µM)	relative viability (GSK-J4 + Alpelisib; first compound 1.581 µM)	relative viability (GSK-J4 + Alpelisib; first compound 5 µM)	relative viability (GSK-J4 + Alpelisib; first compound 15.81 µM)	relative viability (GSK-J4 + Alpelisib; first compound 50 µM)	relative viability (GSK-J4 + Dasatinib; first compound 0.5 µM)	relative viability (GSK-J4 + Dasatinib; first compound 1.581 µM)	relative viability (GSK-J4 + Dasatinib; first compound 5 µM)	relative viability (GSK-J4 + Dasatinib; first compound 15.81 µM)	relative viability (GSK-J4 + Dasatinib; first compound 50 µM)
NCI-H2085	0.898	1	0.977	1	0.868	0.659	0.67	0.67	0.757	0.477	0.894	0.863	0.888	0.898	0.789	0.288	0.273	0.388	0.223	0.377
NCI-H2087	1.06	1.11	1.12	1.05	0.531	0.382	0.54	0.406	0.46	0.471	0.988	1.17		0.933	0.745	0.747		0.725	0.694	0.645
NCI-H2126	0.911	1.31	1.04	1.25	1.29	0.459	0.508	0.52	0.538	0.452	0.763	0.706	0.787	0.741	0.684	0.603	0.47	0.587	0.56	0.444
NCI-H2170	1.09	0.974	0.983	1.04	1.03	0.352	0.434	0.338	0.364	0.357	0.787	0.803	0.878	0.781	0.713	0.542	0.744	0.643	0.475	0.536
NCI-H2228	0.736	0.743	0.736	0.88	0.656	0.345	0.389	0.351	0.321	0.277	0.702	0.653	0.933	0.566	0.575	0.534	0.436	0.683	0.398	0.525
NCI-H2347	0.89	0.934	0.501	1.1	1.07	0.296	0.357	0.461	0.598	0.42	1.02	0.659	0.933	1.05	0.722	0.316	0.286	0.572		0.261
NCI-H2405	1.02	1.03	1.13	1.1	1.09	0.4	0.309	0.304	0.373	0.366	0.814	0.619		0.897	0.935	0.231	0.327		0.212	0.186
NCI-H3122	0.924	1.02	0.971	0.942	1.03	0.367	0.391	0.327	0.339	0.305	0.78	0.634	0.95	0.716	0.674	0.826	0.722	0.788	0.864	0.789
PC-3 [JPC-3]	0.927	1.02	1.03	1.14	0.966	0.465	0.476	0.517	0.521	0.461	0.984	0.961	1.06	0.997	0.848	0.978	0.891	0.742	0.924	0.859
PC-14	0.891	0.9	0.969	1.02	1.02	0.563	0.465		0.579	0.314	0.916	0.909	0.946	0.873	0.913	0.252	0.271	0.204	0.285	0.255
RERF-LC-KJ	0.851	0.862	0.895	0.942	0.844	0.395	0.44	0.433	0.432	0.384	0.65	0.732	0.803	0.744	0.551	0.68	0.774	0.695	0.708	0.371
SK-LU-1	0.803	0.867	0.804	0.897	0.528	0.486	0.512	0.424	0.607	0.345	0.927	0.885	0.661	0.834	0.565	0.176	0.161	0.127	0.199	0.179
SK-MES-1	0.979	0.832	0.974	1	0.957	0.661	0.649	0.61	0.635	0.518	0.783	0.968	0.842	0.805	0.819	0.392	0.348	0.334	0.24	0.358
SW 1573	0.897	0.732	0.983	1.15	0.884	0.398	0.407	0.365	0.367	0.239	0.669	0.715	0.718	0.721	0.454	0.326	0.42	0.348	0.362	0.246
